Data taken from patent US20050143406A1, “Amino-substituted hypocrellins for use as sonosensitizers” (priority 2002, published 2005).
Values joined by “and” are separate entries in the source; they are usually repeats but may differ in a detail not shown here. Equal entries are not always repeated.

Key:
[1] = tested on: EMT6 murine mastocytoma in vitro; assay: Sonosensitizing potential: LD50 for a fixed dose of ultrasound; format: cell-based
[2] = tested on: EMT6 murine mastocytoma in vitro; assay: Photosensitizing potential: LD50 for a fixed dose of light; format: cell-based
[3] = tested on: Human acute promyelocytic leukemia HL-60 cells; assay: Sonodynamic therapy survival assay, screening of sonosensitizers in vitro; format: cell-based; conditions: for Mean - DMSO Bg: mean survival relative to DMSO only (100.0); for Survival, % Mean / Survival, %: insonated HL-60 cells; for Survival, %: single determinations
Source text: This screening assay makes use of human promyelocytic leukemia cells growing in suspension culture. The transducer of an UltraMax ultrasound generator for physiotherapy was adapted for in vitro studies by fitting a tissue culture-compatible Teflon cuff such that cell suspensions could be conveniently insonated. The following diagrams represent the equipment employed.
Human acute promyelocytic leukemia HL-60 cells (ATCC No CCL-240) were maintained in RPMI 1640 cell culture medium supplemented with 7 g/L of L-glutamine (Gibco, Grand Island N.Y.), 10% fetal bovine serum (Cansera), and 1% penicillin-streptomycin-neomycin (Gibco), buffered with NaHCO3 to pH 7.4. They were incubated at 37° C. in a humidified atmosphere of 95% air, 5% CO2, and maintained at cell densities between 2.0×10^5 to 1.0×10^6 cells/mL. For insonations in the presence of Hp (a porphyrin positive control) or hypocrellin test compounds, cells were brought to approximately 1.0×10^6 cells/mL, incubated with the putative sensitizer at 37° C. for 2 hours in T-flasks, equilibrated for 30 minutes at room temperature, resuspended and insonated. All procedures took place in low-light conditions to avoid spurious photosensitization. Cells were gently resuspended for 10 seconds before insonation. […] Stock sensitizer was prepared by slowly adding RPMI-1640 medium to the appropriate volume at final sensitizer concentrations between 0.3 mM and 1 mM.
Aliquots of cells were withdrawn prior to insonation to serve as the original value for cell survival. Cells were suspended in Isoton diluent and counted in a Coulter electronic particle counter. Insonation proceeded at a power density of 2 W, at times varying between 3- and 10 seconds to effect cytotoxicity by sonosensitization. Control cultures were subjected to the appropriate dose of ultrasound, in the presence of DMSO, and the absence of the test sonosensitizer. Following ultrasound treatment, aliquots of the cell suspension were withdrawn for counting as above, and the survival fraction, S, was calculated as the fraction: S=(Cell number following insonation/cell number prior to insonation)×100. Results:
HL-60 cells were treated with perylenequinone sensitizers and insonated as described above. The surviving fractions were plotted against sensitizer concentration. […] Cell survival decreased steeply over the next two decades of sensitizer concentration.

[4] = tested on: syngeneic murine mastocytoma, EMT6; assay: Efficiency of DMHB in vivo: SDT of EMT6 tumors in Balb/c mice; conditions: Balb/c mice with EMT6 flank tumors, DMHB i.p. 50 μM total body concentration, ultrasound 1 MHz 0.2 W/cm^2 10 min after 48 h; FIG. 2
Procedure: We explored the use of DMHB in Balb/c mice engrafted in the flank with the syngeneic murine mastocytoma, EMT6. The mice were inoculated subcutaneously with 1.0×10^5 EMT6 tumor cells in sterile injectable saline. Within 7 days, detectable tumors are evident. Mice were randomized into a control group and a SDT treatment group, which differed only in that the sonosensitizer was not present in the drug solvent (see below). Fresh DMHB was dissolved in mineral oil, and injected intraperitoneally into each mouse to achieve a total body concentration of 50 μM. Following a an interval of 48 h for biodistribution of the sensitizer, the mice were lightly anesthetized with Metafane, and placed on a 2% agarose gel, with the tumor lying in a depression of the gel which was juxtaposed to the transducer of an UltraMax physiotherapy ultrasound generator. Ultrasound was applied at a frequency of 1 MHz, at a power density of 0.2 W/cm^2, for a 10-minute period. The maximum energy applied to the tumor volume was approximately 500 J. Tumor growth was monitored daily by caliper measurements in three mutually orthogonal planes. Tumor volume was calculated from the expression, V=π/6×d1×d2×d3 where V=volume (mm^3), and d1,2, and 3 are the three mutually orthogonal diameters. The endpoint for the assay was the proportion of tumors reaching 4 times treatment volume, which was plotted as a function of time. […]

[5] = HL-60 cells, fixed dose and energy of ultrasound

COc1c2c3c4c(c(OC)c(=O)c5c(O)cc(OC)c(c6c(OC)cc(O)c(c1=O)c63)c54)[C@@H](C(C)=O)[C@@](C)(O)C2 [HA, Hypocrellin A, reference compound]
Sonosensitizing Potential (Molar Concentration which exerts LD50) [1]: None
Photosensitizing Potential (Molar Concentration which exerts LD50) [2]: 4.0 µM

CC1=C(CCC(=O)O)c2cc3[nH]c(cc4nc(cc5[nH]c(cc1n2)c(C)c5C(C)O)C(C)=C4C(C)O)c(C)c3CCC(=O)O (stereo not shown) [Hp, hematoporphyrin, reference compound]
LD50 [3, 5]: 1.0 mM

Demethylated-HB [DMHBa]
Sonosensitizing Potential (Molar Concentration which exerts LD50) [1]: 1.0 mM
Photosensitizing Potential (Molar Concentration which exerts LD50) [2]: 3.0 µM

2-morpholino-ethylaminated HB [HBAM-R1]
Sonosensitizing Potential (Molar Concentration which exerts LD50) [1]: None
Photosensitizing Potential (Molar Concentration which exerts LD50) [2]: 4.0 µM

Methylamine-Hypocrellin B [HBMA-IV]
Sonosensitizing Potential (Molar Concentration which exerts LD50) [1]: None
Photosensitizing Potential (Molar Concentration which exerts LD50) [2]: 1.0 µM

CCCCNc1c2c3c4c(c(OC)c(=O)c5c(O)cc(OC)c(c6c(OC)cc(O)c(c1=O)c63)c54)CC(C)=C2C(C)=O [DMHBb, 2-butylamino-2-demethoxy-Hypocrellin B]
Sonosensitizing Potential (Molar Concentration which exerts LD50) [1]: 0.1 mM
Photosensitizing Potential (Molar Concentration which exerts LD50) [2]: 0.1 µM

demethoxy hypocrellin B [DMHB]
maximum sonotoxic effect compared with Hp control ([3]; HL-60 cells): comparable to that of the Hp control
LD50 [3, 5]: approximately 100 μM
difference of LD50 versus hematoporphyrin (Hp) control [3, 5]: 10 fold
sonotoxicity ([3]; HL-60 cells, up to 100 μM): negligible sonotoxicity
Mean - DMSO Bg ([3]; 1 μM DMHB): 83.0%
Mean - DMSO Bg ([3]; 10 μM DMHB): 71.1%
Mean - DMSO Bg ([3]; 100 μM DMHB): 63.2%
Survival, % Mean ([3]; DMSO + 1 μM DMHB): 41.1%
Survival, % Mean ([3]; DMSO + 10 μM DMHB): 35.2%
Survival, % Mean ([3]; DMSO + 100 μM DMHB): 31.3%
Survival, % ([3]; DMSO + 1 μM DMHB): 41.8% and 48.2% and 33.5%
Survival, % ([3]; DMSO + 10 μM DMHB): 37.3% and 43.3% and 24.9%
Survival, % ([3]; DMSO + 100 μM DMHB): 30.7% and 39.4% and 23.7%
tumor growth [4]: tumor growth is inhibited

2-(N,N-dimethyl-amino) propylamine-Hypocrellin B [HBDD-R1]
Sonosensitizing Potential (Molar Concentration which exerts LD50) [1]: 1.0 mM

Ethylenediamne-Hypocrellin B [HBED-R2]
Sonosensitizing Potential (Molar Concentration which exerts LD50) [1]: None
Photosensitizing Potential (Molar Concentration which exerts LD50) [2]: 4.0 µM
